This note sets out measurements from PubChem BioAssay (NCI).

Several values for one entry are separate records, joined by “and”; a condition that tells them apart may be missing. Identical values can stand only once.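 Tested at 5 concentrations; 48 h exposure; 96-well plates; endpoints linearly interpolated, else capped at highest concentration. Abbreviation: GI50, concentration required for 50% inhibition of growth. TGI: total growth inhibition.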 Some results are limits rather than exact numbers.

What all share (assay): growth of human tumour cells (NCI), 48 h
Test [1] has as its system CAKI-1 renal.
In test [2] the test system is DU-145 prostate.
The test system of test [3] is NCI-H23 lung.
The test system of test [4] is SF-539 CNS.
The subject of test [5] is SK-OV-3 ovarian.
Test [6] relates to SN12C renal.
The subject of test [7] is SR leukemia.
Test [8] relates to UACC-257 melanoma.

On to `Cn1c(=O)c(F)c(Nc2ccc(I)cc2F)c2c(=O)n(C[C@@H](O)CO)cnc21`, for which the GI50 in test [1] was 0.649 µM and 0.139 µM; in test [3], 0.0183 µM and 0.0231 µM; in test [4] it was 3.21 µM and 0.907 µM; in test [5], 15.1 µM; in test [6] it was 3.91 µM and 0.487 µM; in test [7], 5.04 µM. Also, the GI50 in test [8] is < 0.01 µM and 0.00301 µM. For the same compound, the TGI was over 90 µM in test [1]; over 100 µM in test [2]; over 46.4 µM in test [3]; 22.8 µM and > 4.07 µM in test [4]; over 68.8 µM in test [5]; over 100 µM in test [6]. For the same compound, the TGI in test [7] is 36.4 µM and > 10 µM; in test [8], < 0.01 µM and 0.0262 µM.

Consider `C[n+]1c2ccccc2c(NC2CCNCC2)c2[nH]c3ccccc3c21`, for which the TGI in test [1] was 7.09 µM; in test [2], 4.32 µM; in test [3], 0.88 µM; in test [4], 6.83 µM; in test [5] it was 3 µM; in test [6], 0.314 µM. Further, the TGI in test [7] is over 100 µM; in test [8], 23.7 µM. The GI50 in test [2] was 0.2 µM; in test [3] it was 0.0944 µM; in test [4] it was 1.48 µM; in test [5], 0.302 µM; in test [6], 0.0324 µM; in test [7], 1.7 µM. The GI50 in test [8] was 5.41 µM.

Consider `O=C(Nc1ccccc1Cl)c1ccc(NC2=C(Cl)C(=O)N(Cc3ccccc3)C2=O)cc1`, for which the GI50 in test [1] was 43.5 µM; in test [2], over 100 µM; in test [3] it was 19.2 µM; in test [4], 45.6 µM; in test [5] it was over 100 µM; in test [6], 27.8 µM. Also, the results for the GI50 in test [7] and in test [8] were 15.7 µM and 38.8 µM, respectively. Moreover, the TGI in test [1] was over 100 µM; in test [2], over 100 µM; in test [3], 35.7 µM; in test [4] it was over 100 µM; in test [5], over 100 µM; in test [6], 73.7 µM. Also, the TGI in test [7] was 41.5 µM; in test [8] it was over 100 µM.

For `CC1=C(C)C(=O)C(C(C)C2=C(C)C(=O)C(C)=C(C)C2=O)=C(C)C1=O`, the GI50 in test [1] was 28.6 µM; in test [2], 35.5 µM; in test [3] it was 21.6 µM; in test [4], 23.7 µM; in test [5] it was over 100 µM; in test [6], 56 µM. Moreover, the GI50 was 7.35 µM in test [7] and 33.5 µM in test [8]. Further, the TGI in test [1], in test [2], in test [3], in test [4], in test [5] and in test [6] was over 100 µM in each case. Further, the TGI in test [7] is 31.7 µM; in test [8] it was over 100 µM.

`Cn1c(=O)c(Cc2ccc(F)cc2F)cc2cnc(NC3CCOCC3)nc21`: the GI50 in test [1] is over 19.4 µM; in test [2] it was over 25 µM; in test [3] it was over 25 µM; in test [4], over 25 µM; in test [5], over 25 µM; in test [6], over 19.8 µM. Further, the GI50 in test [7] and in test [8] was over 25 µM throughout. Moreover, the TGI in test [1], in test [2], in test [3], in test [4], in test [5] and in test [6] was over 25 µM each time. Moreover, the TGI in test [7] and in test [8] was over 25 µM each time.

Take `O=C1c2cccc3cccc(c23)C(=O)N1CCCCOc1ccc(-c2nc3ccc(N4CCOCC4)cc3[nH]2)cc1`: the GI50 in test [1] was 11.6 µM; in test [2], 3.86 µM; in test [3], 6.7 µM; in test [4], 1.65 µM; in test [5], 31.2 µM; in test [6], 5.56 µM. The GI50 in test [7] was 2.35 µM; in test [8], 5.06 µM. In addition, the TGI in test [1] is 27 µM; in test [2], 15.8 µM; in test [3], 23.5 µM; in test [4], 3.47 µM; in test [5], over 54 µM; in test [6], 12.1 µM. For the same compound, the TGI is over 100 µM in test [7] and 27.9 µM in test [8].

`COc1ccc(-n2c(N)c(C(=O)NCCN3CCOCC3)c3nc4ccccc4nc32)cc1OC`: the GI50 in test [1] is 4.62 µM; in test [2] it was 9.81 µM; in test [3], 38.3 µM; in test [4], 7.8 µM; in test [5] it was 85.5 µM; in test [6], 5.29 µM. Also, the GI50 in test [7] was 0.63 µM; in test [8] it was 34.4 µM. The TGI in test [1], in test [2], in test [3], in test [4], in test [5] and in test [6] was over 100 µM each time. The figures for the TGI in test [7] and in test [8] were 22.3 µM and over 100 µM, respectively.
